Experimental data: patent US6262073A, “Pharmaceutical methods of use of 5-substituted and 5,5 disubstituted-3,4-dihydroxy-2(5H)-furanones” (Oxis International Inc., priority 2000, dated 2001)

Molecular target: T1, Cyclooxygenase-1 (cyclooxygenase from ram seminal vesicles) (Ovis aries, UniProt P05979)
T1 construct: cyclooxygenase from ram seminal vesicles; from tissue; host or cells: ram seminal vesicles
T1 sequence (P05979 25-600): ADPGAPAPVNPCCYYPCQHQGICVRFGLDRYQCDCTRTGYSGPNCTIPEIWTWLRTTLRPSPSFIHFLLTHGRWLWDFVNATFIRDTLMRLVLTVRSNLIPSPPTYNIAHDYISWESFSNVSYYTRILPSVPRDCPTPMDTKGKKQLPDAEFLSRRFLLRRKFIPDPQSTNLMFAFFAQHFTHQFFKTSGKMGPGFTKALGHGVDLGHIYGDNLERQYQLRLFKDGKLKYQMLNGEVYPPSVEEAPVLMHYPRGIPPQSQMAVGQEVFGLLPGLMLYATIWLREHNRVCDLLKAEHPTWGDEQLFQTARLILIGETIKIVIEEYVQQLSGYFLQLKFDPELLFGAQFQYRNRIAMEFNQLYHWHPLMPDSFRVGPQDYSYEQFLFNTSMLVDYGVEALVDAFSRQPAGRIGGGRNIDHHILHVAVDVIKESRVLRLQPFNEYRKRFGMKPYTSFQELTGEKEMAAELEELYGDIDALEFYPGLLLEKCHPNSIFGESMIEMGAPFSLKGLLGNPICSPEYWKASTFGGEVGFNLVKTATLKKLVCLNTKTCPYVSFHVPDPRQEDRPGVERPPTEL
Test: Cyclooxygenase-1 screen (COX-1)
Format: biochemical
Conditions: 300 μM
Experimental: (§1) The compounds of the invention were screened for their anti-inflammatory activity using a series of in vitro tests the details of which are given below. The activity of various compounds against 5-lipoxygenase, cycloxygenase-1, cycloxygenase-2 and lipid peroxidase was evaluated. Results of the screening procedures are included in TABLE I, and the activity against 5-lipoxygenase at a test concentration of 1 μM in Table II.
Cyclooxygenase-1 is involved in the formation of prostaglandins and thromboxane via the oxidative metabolism of arachidonic acid. Briefly, cyclooxygenase from ram seminal vesicles is incubated with arachidonic acid (100 μm) for 2 minutes at 37° C. in the presence or absence of test compounds according to the methods of A. T. Evans et al., Biochem. Pharm. 36:2035-2037(1987) and R. Boopathy et al., Biochem J. 239:371-377 (1968). The assay is terminated by the addition of trichioroacetic acid and cyclooxygenase activity is determined by reading the absorbance at 530 nm. […]

Compared with `CCCC1(c2ccc(CC(C)C)cc2)OC(=O)C(O)=C1O` (stereo not drawn) [Example 9, 3,4-Dihydroxy-5-(4-isobutylphenyl)-5-(1-propyl)-2(5H)-furanone], `CC(C)Cc1ccc([C@@]2(C)OC(=O)C(O)=C2O)cc1` [Example 13, (R)-(-)-3,4-Dihydroxy-5-methyl-5-[4-(2-methylpropyl)phenyl]-2(5H)-furanone] is lower in COX-1 percent inhibition: 25% for the first, 12% for the second.

Molecular target: T2, Cyclooxygenase-2 (prostaglandin H synthetase-2) from sheep placenta (Ovis aries, UniProt P79208)
T2 construct: cyclooxygenase-2 from sheep placenta; from tissue; host or cells: sheep placenta
T2 sequence (P79208 17-603): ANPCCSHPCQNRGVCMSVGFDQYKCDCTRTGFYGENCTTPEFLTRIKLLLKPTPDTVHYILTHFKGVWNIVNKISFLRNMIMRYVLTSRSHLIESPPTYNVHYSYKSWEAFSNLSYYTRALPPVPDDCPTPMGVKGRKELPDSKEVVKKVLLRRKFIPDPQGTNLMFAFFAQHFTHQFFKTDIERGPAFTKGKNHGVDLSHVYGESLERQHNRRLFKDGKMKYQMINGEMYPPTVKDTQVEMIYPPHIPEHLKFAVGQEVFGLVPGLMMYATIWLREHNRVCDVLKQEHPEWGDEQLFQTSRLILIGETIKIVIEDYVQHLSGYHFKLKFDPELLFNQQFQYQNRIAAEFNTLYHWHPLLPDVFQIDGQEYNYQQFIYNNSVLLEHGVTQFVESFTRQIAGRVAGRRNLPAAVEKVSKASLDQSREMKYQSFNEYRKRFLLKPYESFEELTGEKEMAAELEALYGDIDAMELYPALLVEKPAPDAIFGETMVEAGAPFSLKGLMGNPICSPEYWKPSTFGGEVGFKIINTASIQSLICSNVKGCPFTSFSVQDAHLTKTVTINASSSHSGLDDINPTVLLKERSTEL
Test: Cyclooxygenase-2 screen (COX-2)
Format: biochemical
Conditions: read-out: COX-2 percent inhibition
Experimental: as §1
Cyclooxygenase-2, also known as prostaglandin H synthetase-2, catalyzes the rate- limiting step in the synthesis of inflammatory prostaglandins. In this reaction cyclooxygenase-2 catalyzes the oxygenation of unesterified precursors to form cyclic endoperoxide derivatives, including prostaglandin H. Briefly, cyclooxygenase-2 from sheep placenta, 14 μg/assay tube, is incubated with arachidonic acid (500 μM) for 1.5 minutes at 27° C. in the absence or presence of test compounds according to the methods of A. T. Evans, et al., Biochem Pharm. […] Res. Comm. […] Compounds are screened at 300 μM.

Compared with `CCCC1(c2ccc(CC(C)C)cc2)OC(=O)C(O)=C1O` (stereo not drawn) [Example 9, 3,4-Dihydroxy-5-(4-isobutylphenyl)-5-(1-propyl)-2(5H)-furanone], `CC(C)Cc1ccc([C@@]2(C)OC(=O)C(O)=C2O)cc1` [Example 13, (R)-(-)-3,4-Dihydroxy-5-methyl-5-[4-(2-methylpropyl)phenyl]-2(5H)-furanone] is lower in inhibition at 300 µM: 19% for the first, 14% for the second.

Molecular target: T3, 5-Lipoxygenase (crude enzyme preparation from rat basophilic leukemia cells, RBL-1) (Rattus norvegicus, UniProt P12527)
T3 construct: crude enzyme preparation from rat basophilic leukemia cells (RBL-1); endogenous in cells; host or cells: rat basophilic leukemia cells (RBL-1)
T3 sequence (P12527 1-673): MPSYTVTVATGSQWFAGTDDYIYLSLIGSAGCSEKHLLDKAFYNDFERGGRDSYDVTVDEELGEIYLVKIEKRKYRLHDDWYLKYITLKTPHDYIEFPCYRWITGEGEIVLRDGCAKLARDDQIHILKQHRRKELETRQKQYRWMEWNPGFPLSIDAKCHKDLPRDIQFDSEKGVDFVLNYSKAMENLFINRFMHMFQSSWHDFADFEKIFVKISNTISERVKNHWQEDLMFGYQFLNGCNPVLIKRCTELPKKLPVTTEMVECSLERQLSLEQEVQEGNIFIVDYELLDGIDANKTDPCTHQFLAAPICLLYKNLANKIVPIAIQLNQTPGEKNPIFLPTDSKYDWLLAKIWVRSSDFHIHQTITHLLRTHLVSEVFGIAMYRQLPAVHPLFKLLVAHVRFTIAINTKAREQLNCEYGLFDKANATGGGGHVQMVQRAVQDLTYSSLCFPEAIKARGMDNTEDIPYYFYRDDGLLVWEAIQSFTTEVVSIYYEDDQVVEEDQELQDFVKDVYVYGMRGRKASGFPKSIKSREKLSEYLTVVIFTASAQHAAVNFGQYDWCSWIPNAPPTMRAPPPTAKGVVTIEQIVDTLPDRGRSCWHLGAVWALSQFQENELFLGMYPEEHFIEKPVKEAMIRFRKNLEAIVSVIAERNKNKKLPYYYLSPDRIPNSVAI
Test: 5-Lipoxygenase screen (5-LO), 5-HETE by RIA
Format: biochemical
Conditions: 30 μM; read-out: 5-LO percent inhibition
Experimental: as §1
5-Lipoxygenase catalyzes the oxidative metabolism of arachidonic acid to […] (5-HETE), the initial reaction leading to the formation of the leukotrienes. Briefly, the testing procedure utilizes a crude enzyme preparation from rat basophilic leukemia cells (RBL-1) according to the methods of T. Shimuzu et al. Pro. […] Test compounds are pre-incubated with the enzyme preparation for 5 minutes at room temperature and the reaction is initiated by the addition of arachidonic acid. Following an 8 minute incubation at room temperature, the reaction is terminated by the addition of citric acid and concentrations of 5-HETE are determined by RIA. Compounds are screened at 30 μM.

Compared with `CCCC1(c2ccc(CC(C)C)cc2)OC(=O)C(O)=C1O` (stereo not drawn) [Example 9, 3,4-Dihydroxy-5-(4-isobutylphenyl)-5-(1-propyl)-2(5H)-furanone], `CC(C)Cc1ccc([C@@]2(C)OC(=O)C(O)=C2O)cc1` [Example 13, (R)-(-)-3,4-Dihydroxy-5-methyl-5-[4-(2-methylpropyl)phenyl]-2(5H)-furanone] is higher in inhibition at 30 µM: 82% for the first, 102% for the second.

Same assay, conditions: read-out: Percent inhibition of 5-LO; test conc. 1 μM (Table II)

Going from `CCCC1(c2ccc(CC(C)C)cc2)OC(=O)C(O)=C1O` (stereo not drawn) [Example 9, 3,4-Dihydroxy-5-(4-isobutylphenyl)-5-(1-propyl)-2(5H)-furanone] to `CC(C)Cc1ccc([C@@]2(C)OC(=O)C(O)=C2O)cc1` [Example 13, (R)-(-)-3,4-Dihydroxy-5-methyl-5-[4-(2-methylpropyl)phenyl]-2(5H)-furanone], the inhibition at 1 µM rises from 40% to 59%.

Tested on: Lipid peroxidation (rat liver microsomes)
Test: Lipid peroxidation screen (LPO), CCl4-induced, liver microsomes
Format: biochemical
Conditions: 300 μM
Experimental: as §1
Lipid peroxidation is a consequence of various stimuli, including reactive free radicals. Polyunsaturated fatty acids associated with plasma membranes are degraded due to enzymatic induction by reactive agents such as CCl4, leading to cellular damage. Briefly, microsomes are prepared from rat livers and the protein concentration is determined according to the method of D. Mansuy et al., Biochem. Biophys. Res. Comm. 135:1015-1021(1986). A reaction mixture consisting of 2 mg of the microsomal preparation, an NADPH generating system, 20 mM CCl4 and test compound are incubated for 12 minutes at 37° C. The reaction is terminated by the addition of a mixture of thiobarbituric acid and trichloroacetic acid. The absorbance is read at 535 nm and is proportional to the concentration of malondialdehyde. Compounds are screened at 300 μM.

First: CCCC1(c2ccc(CC(C)C)cc2)OC(=O)C(O)=C1O (stereo not drawn) [Example 9, 3,4-Dihydroxy-5-(4-isobutylphenyl)-5-(1-propyl)-2(5H)-furanone]
Second: CC(C)Cc1ccc([C@@]2(C)OC(=O)C(O)=C2O)cc1 [Example 13, (R)-(-)-3,4-Dihydroxy-5-methyl-5-[4-(2-methylpropyl)phenyl]-2(5H)-furanone]
The LPO percent inhibition of the first is higher: 79% for the first, 76% for the second.

Tested on: Nuclear Factor-kappa B (NF-κB)
Test: NF-κB lacZ (κB-Z) reporter assay in transfected Jurkat cells stimulated with A23187 and PMA
Format: cell-based, human
Conditions: Homo sapiens; 10 μM; κB-Z Jurkat cells, A23187 and PMA (Table III); read-out: NF-κB percent inhibition
Experimental: The human T lymphoid cell line Jurkat was transfected with a response element lacZ reporter in which transcription of the β-galactosidase gene is directed by the binding site for the NF-κB transcription factor. […] At the end of the incubation, the cells are spun down and resuspended in the buffer and FDG (fluorescein di-β-D-galactopyranoside) solution. The covered plates are further incubated in the dark for 16 hours at 25° C. […] Compounds were screened at 10 μM.

Compared with `CCCC1(c2ccc(CC(C)C)cc2)OC(=O)C(O)=C1O` (stereo not drawn) [Example 9, 3,4-Dihydroxy-5-(4-isobutylphenyl)-5-(1-propyl)-2(5H)-furanone], `CC(C)Cc1ccc([C@@]2(C)OC(=O)C(O)=C2O)cc1` [Example 13, (R)-(-)-3,4-Dihydroxy-5-methyl-5-[4-(2-methylpropyl)phenyl]-2(5H)-furanone] is higher in inhibition at 10 µM: 26% for the first, 49% for the second.
